Measurements: patent US20030113330A1, “Methods for treating pulmonary fibrosis” (priority 1999, published 2003)
Read-outs that look alike come from different tables or passages of the source.

Columns and labels:
[1] = test system: primary rat AEC
Experimental: (§1) The human lung adenocarcinoma cell line A549 (ATCC) was cultured in Ham's F12 medium supplemented with 10% fetal bovine serum (FBS). Primary alveolar epithelial cells were isolated from adult male Wistar rats. The primary cells were studied at day two of culture, a time at which they are type II cell-like by accepted morphologic and biochemical criteria. […] All cells were seeded in 24-well or 6-well chambers, and all experiments were conducted at subconfluent densities of 80-90% in serum-free Ham's F12 medium. Test reagents were diluted with Ham's F12 medium and were applied for 20 hours at 37C. in a 5% CO2 incubator.
(§2) Apoptotic cells were detected using propidium iodide (PI) following digestion of ethanol-fixed cells with DNAse-free RNAse in PBS containing 5 ug/ml PI. […] In replicate culture vessels, necrosis was detected as the loss of exclusion of PI after application of the vital dye directly to the cell culture medium at 5 ug/ml final concentration. Red fluorescent (PI-POSITIVE) cells (>570 nm) were scored over the subsequent hour as a percentage of the total cells in any given field. A minimum of 4 separate fields were scored in each of three separate culture vessels per experiment condition; all experiments were performed at least twice and the data were compiled. Although all necrotic cells are PI-positive, some apoptotic cells may also take up the dye but these comprise a minor fraction of the total dead cell population.
(§3) In all assays, detached cells were retained by centrifugation of the culture vessel at 300×g for 10 minutes with a centrifuge rotor designed for culture plates. For detection of necrosis (dye exclusion of PI), the PI was added directly to the cell culture medium immediately before centrifugation of the culture vessel. For detection of apoptosis, ethanol was added directly to the cell culture medium to a final concentration of 70% immediately before the centrifugation. Afterward, the ethanol was carefully removed and the total cell population (attached plus sedimented detached cells) were stained with PI as described above.

[2] = test system: A549 cells
Experimental: as §1, §2, §3

[3] = test system: primary rat AEC; test: Fas ligand-induced apoptosis of primary rat alveolar epithelial cells; assay type: cell-based; details: captopril, lisinopril 500 ng/ml; caspase inhibitors 60 uM
Experimental: Lung Cell Isolation and Detection of Apoptosis In Vitro. Primary alveolar epithelial cells (AEC) were isolated from adult male Wistar rats as described above. The primary cells were studied at day two of culture, a time at which they are type II cell-like by accepted morphologic and biochemical criteria, see Paine et al., Am. J. Physiol. […] All cells were seeded in 24-well or 6-well chambers, and all experiments were conducted at subconfluent densities of 80-90% in serum-free Ham's F12 medium. Test reagents were diluted with Ham's F12 medium and were applied for 20 hours at 37° C. in a 5% CO2 incubator.
Detection of apoptotic cells with propidium iodide (PI) was conducted as described above, following digestion of ethanol-fixed cells with DNAse-free RNAse in PBS containing 5 ug/ml PI.
Expression of FAS by alveolar epithelial cells is observed during bleomycin-induced fibrogenesis in mice. See Hagimoto, et al., Am. J. Respir. Cell Mol. Biol. 16:91-101 (1997). […] Apoptosis was detected by quantitation of fragmented nuclei (see above).
Cell Culture and Detection of Apoptosis. The human lung adenocarcinoma cell line A549 was obtained from American Type Culture Collection and cultured in Ham's F12 medium supplemented with 10% fetal bovine serum (FBS). Primary alveolar epithelial cells were isolated from adult male Wistar rats as described earlier (Uhal, B. D., I. Joshi, A. True, S. Mundle, A. Raza, A. Pardo and M. Selman. Fibroblasts isolated after fibrotic lung injury induce apoptosis of alveolar epithelial cells in vitro. Am. J. Physiol. 269:L819-L828, 1995); Wang, R., A. Zagariya, 0. Ibarra-Sunga, C. […] Am. J. Physiol. 276:L885-L889 (1999)). […] All cells were seeded in 24-well or 6-well chambers, and all experiments were conducted at subconfluent densities of 80-90% in serum-free Ham's F12 medium. Test reagents were diluted with serum-free Ham's F12 medium and were applied under serum-free conditions for 20 hours at 37C. in a 5% CO2 incubator. Detection of apoptotic cells with propidium iodide (PI) was conducted as described above Am. J. Physiol. 275:L1013-1017 (1998); Uhal et al., following digestion of ethanol-fixed cells with DNAse-free RNAse in PBS containing 5 μg/ml PI. In all assays, detached cells were retained by centrifugation of the culture vessels during fixation with 70% ethanol, or by retention of culture media and recovery by centrifugation before assay.
Apoptosis was detected by nuclear fragmentation as described above.

[4] = test system: primary rat AEC; test: Angiotensin II-induced apoptosis in primary rat AEC (nuclear fragmentation, PI); assay type: cell-based; details: ANGII 5.0 uM; saralasin 50 ug/ml, lisinopril 500 ng/ml
Description: Cell Culture. The human lung adenocarcinoma cell line A549 was obtained from American Type Culture Collection and cultured in Ham's F12 medium supplemented with 10% fetal bovine serum (FBS). Primary alveolar epithelial cells were isolated from adult male Wistar rats as described in Uhal et al., Am. J. Physiol. Suppl. (Oct.) 261:110-117 (1991) and Uhal et al., Am. J. Physiol. 269:L819-L828 (1995). The primary cells were studied at day two of culture, a time at which they are type II cell-like by accepted morphologic and biochemical criteria, see Uhal, Am. J. Physiol. 272:L1031-L1045 (1997). […] J. Physiol. Suppl. (October) 261:110-117 (1991). All cells were seeded in 24-well or 6-well chambers, and all experiments were conducted at subconfluent densities of 80-90% in serum-free Ham's F12 medium. Test reagents were diluted with Ham's F12 medium and were applied for 20 h at 37° C. in a 5% CO2 incubator.
Detection of Apoptosis. Detection of apoptotic cells with propidium iodide (PI) was conducted as described in Uhal, et al., Am. J. Physiol. 275:L1013-1017 (1998) following digestion of ethanol-fixed cells with DNAse-free RNAse in PBS containing 5 ug/ml PI. Assay of Annexin V binding by flow cytometry was performed essentially as described for human lung fibroblasts in Uhal, et al., Am. J. Physiol. 275:L998-L1005 (1998) after trypsinization of cells from culture vessels. Assay of Caspase-3 activity was performed on viable suspension cultures as reported in Uhal, et al., Am. J. Physiol. 275:L1013-1017 (1998). In all assays, detached cells were retained by centrifugation of the culture vessels during fixation with 70% ethanol, or by retention of culture media and recovery by centrifugation before assay.
(§4) For microscopy, cells were cultured on glass cover slips, incubated with test reagents and fixed with 70% ethanol. The fixed cells were immunolabeled overnight at 4° C. with monoclonal antibodies to cytokeratins 7 and 19 (Chemicon International, Temecula, Calif.), and then for one hour at 37° C. with anti-mouse IgG-rhodamine and DNAse-free RNAse (Boehringer Mannheim, Indianapolis, Ind.) The cover slips were then rinsed in distilled water three times and mounted under Fluoromount Solution (Southern Biotechnology Associates, Birmingham, Ala.) containing 5 ug/ml propidium iodide. Photomicroscopy was performed as described in Uhal, et al., Am. J. Physiol. 275:L1013-1017 (1998).
Apoptosis in alveolar epithelial cells was quantitated by fluorescence detection of chromatin condensation and nuclear fragmentation in alcohol-fixed cells stained with propidium iodide. See Uhal, et al., Am. J. Physiol. 275:L1013-1017 (1998). […] After 20 h, the culture vessel was centrifuged to retain detached cells and labeled with anticytokeratin antibodies and propidium iodide. […] Double labeling with PI and monoclonal antibodies to cytokeratins 7 and 19 identified cells with both apoptotic nuclear morphology and positive anticytokeratin immunoreactivity.

[5] = test system: primary rat AECs; test: TNF-α-induced apoptosis of primary rat AECs; assay type: cell-based; details: purified TNF-α
[6] = AIPT; cited from earlier work
[7] = test system: primary rat AEC; test: Amiodarone-induced net cell loss in primary rat AEC cultures; assay type: cell-based; details: 20 hours exposure
Experimental: (§6) Primary alveolar epithelial cells were isolated from adult male Wistar rats. The primary cells were studied at day two of culture, a time at which they are type II cell-like by accepted morphologic and biochemical criteria. All primary cell preparations were of better than 90% purity assessed by acridine orange staining. All cells were seeded in 24-well or 6-well chambers, and all experiments were conducted at subconfluent densities of 80-90% in serum-free Ham's F12 medium. Test reagents were diluted with Ham's F12 medium and were applied for 20 hours at 37C. in a 5% CO2 incubator.
(§7) Importantly, unattached cells were recovered and included in the analyses, and thus the data represent true loss of cells rather than simple detachment from the substratum.

[8] = test system: primary cultures of rat AEC; assay type: cell-based; details: primary rat AEC, 20 h
Experimental: (§8) The human lung adenocarcinoma cell line A549 (ATCC) was cultured in Ham's F12 medium supplemented with 10% fetal bovine serum (FBS). Primary alveolar epithelial cells were isolated from adult male Wistar rats. The primary cells were studied at day two of culture, a time at which they are type II cell-like by accepted morphologic and biochemical criteria. All primary cell preparations were of better than 90% purity assessed by acridine orange staining. All cells were seeded in 24-well or 6-well chambers, and all experiments were conducted at subconfluent densities of 80-90% in serum-free Ham's F12 medium. Test reagents were diluted with Ham's F12 medium and were applied for 20 hours at 37C. in a 5% CO2 incubator.

[9] = test system: human A549 cells; assay type: cell-based; details: A549, 20 h
Experimental: as §8
Apoptotic cells were detected using propidium iodide (PI) following digestion of ethanol-fixed cells with DNAse-free RNAse in PBS containing 5 ug/ml PI. […] In replicate culture vessels, necrosis was detected as the loss of exclusion of PI after application of the vital dye directly to the cell culture medium at 5 ug/ml final concentration. Red fluorescent (PI-POSITIVE) cells (>570 nm) were scored over the subsequent hour as a percentage of the total cells in any given field. A minimum of 4 separate fields were scored in each of three separate culture vessels per experiment condition; all experiments were performed at least twice and the data were compiled. […]

[10] = test system: A549 cells; test: Amiodarone-induced net cell loss in A549 cultures; assay type: cell-based, human; details: 20 hours exposure
Experimental: as §6, §7

[11] = test system: A549 cell line; test: Angiotensinogen-induced apoptosis in A549 cells; assay type: cell-based, human
Experimental: Cell Culture. […] J. Physiol. Suppl. (Oct.) 261:110-117 (1991) and Uhal et al., Am. J. Physiol. 269:L819-L828 (1995). […] J. Physiol. 272:L1031-L1045 (1997). […] J. Physiol. Suppl. (October) 261:110-117 (1991).
(§5) Detection of Apoptosis. […] J. Physiol. […] Assay of Annexin V binding by flow cytometry was performed essentially as described for human lung fibroblasts in Uhal, et al., Am. J. Physiol. 275:L998-L1005 (1998) after trypsinization of cells from culture vessels. Assay of Caspase-3 activity was performed on viable suspension cultures as reported in Uhal, et al., Am. J. Physiol. 275:L1013-1017 (1998).
as §4

[12] = test system: primary rat AEC; test: Angiotensinogen-induced apoptosis in primary rat AEC; assay type: cell-based; details: 5 uM
Experimental: Cell Culture. […] J. Physiol. Suppl. […] J. Physiol. […] J. Physiol. […] J. Physiol. Suppl.
as §5, with “275:L998-L1005 (1998) after trypsinization of cells from culture vessels.” left out, “Physiol.” for “Physiol. 275:L1013-1017 (1998).”
as §4, with “Physiol.” for “Physiol. 275:L1013-1017 (1998).”

Molecule: CCCCc1nc(Cl)c(CO)n1Cc1ccc(-c2ccccc2-c2nn[nH]n2)cc1 [Losartan, losartan]
- inhibition of amiodarone-induced apoptosis ([1]; captopril 500 ng/ml, saralasin 50 ug/ml, Losartan 5 pg/ml, amiodarone 2.5 ug/ml for chelerythrine, orthovanadate): completely blocked
- inhibition of amiodarone-induced apoptosis ([2]; captopril 500 ng/ml, saralasin 50 ug/ml, Losartan 5 pg/ml): completely blocked
- inhibition of Fas ligand-induced apoptosis of primary rat AEC (words) [3]: abrogated
- inhibition of ANGII-induced apoptosis of primary rat AEC [4]: abrogated
- inhibition of TNF-α-induced apoptosis [5]: abrogated

Molecule: CCCCc1oc2ccccc2c1C(=O)c1cc(I)c(OCCN(CC)CC)c(I)c1 [amiodarone]
- induction of apoptosis ([1]; 15 ug/ml AM, 5 ug/ml DES): 16 fold
- concentration at which significant apoptosis begins ([1]; primary AEC): 2.5 µg/mL
- maximum increase in apoptotic cells ([2]; 10 ug/ml AM, 5 ug/ml DES): 10 fold
- concentration at which apoptosis begins ([2]; A549): 10 µg/mL
- estimated mortality of affected patients [6]: 5 to 10%
- effect on total cell number [7]: significantly decreased
- concentration at which significant cell death / toxicity begins [8]: 2.5 µg/mL
- concentration at which significant cell death / toxicity begins ([8]; listed as AM): 1 µg/mL
- concentration at which necrosis / significant cell death begins [9]: 10 µg/mL
- effect on total cell number [10]: significantly decreased

B1: angiotensinogen: purified angiotensinogen, serum globulin precursor of angiotensin I (protein, UniProt P01019 25-476, looked up)
Angiotensinogen: DRVYIHPFHLVIHNESTCEQLAKANAGKPKDPTFIPAPIQAKTSPVDEKALQDQLVLVAAKLDTEDKLRAAMVGMLANFLGFRIYGMHSELWGVVHGATVLSPTAVFGTLASLYLGALDHTADRLQAILGVPWKDKNCTSRLDAHKVLSALQAVQGLLVAQGRADSQAQLLLSTVVGVFTAPGLHLKQPFVQGLALYTPVVLPRSLDFTELDVAAEKIDRFMQAVTGWKTGCSLMGASVDSTLAFNTYVHFQGKMKGFSLLAEPQEFWVDNSTSVSVPMLSGMGTFQHWSDIQDNFSVTQVPFTESACLLLIQPHYASDLDKVEGLTFQQNSLNWMKKLSPRTIHLTMPQLVLQGSYDLQDLLAQAELPAILHTELNLQKLSNDRIRVGEVLNSIFFELEADEREPTESTQQLNKPEVLEVTLNRPFLFAVYDQSATALHFLGRVANPLSTA
- induction of apoptosis by angiotensinogen [11]: not capable of inducing apoptosis
- induction of apoptosis by angiotensinogen [12]: induced apoptosis with the same potency as did ANGII
